# Test results taken from ChEMBL document CHEMBL1151521, “Balanced AT1 and AT2 angiotensin II antagonists. III. potent and orally active 5--ketosulfoxide imidazolyl biphenyl sulfonylureas” (Bioorg Med Chem Lett, 1995).
# How the values were obtained:
# Rattus norvegicus [1] = assay: Compound was evaluated in vivo, after peroral administration for the inhibition of the pressor response induced by A II (0.75 ug/kg) in normotensive pithed rats; format: functional; details: for ED50: Rattus norvegicus, po, read-out: ID50 (the source's name)
# [2] = Concentration required for 50% inhibition of [125I]- AII binding to rabbit uterus membrane preparation (AT2); format: tissue-based, Oryctolagus cuniculus
# Rattus norvegicus [3] = assay: Compound was evaluated in vivo, after intravenous administration for the inhibition of the pressor response induced by A II (0.75 ug/kg) in normotensive pithed rats; format: functional; details: read-out: ID50 (the source's name)
# [4] = target: T1, Angiotensin II receptor (AT-1) type-1 (Rattus norvegicus, UniProt P29089+P25095); assay: Concentration required for 50% inhibition of [125I]- AII binding to rat liver membrane preparation (AT1)
# T1 sequence (P29089 whole entry): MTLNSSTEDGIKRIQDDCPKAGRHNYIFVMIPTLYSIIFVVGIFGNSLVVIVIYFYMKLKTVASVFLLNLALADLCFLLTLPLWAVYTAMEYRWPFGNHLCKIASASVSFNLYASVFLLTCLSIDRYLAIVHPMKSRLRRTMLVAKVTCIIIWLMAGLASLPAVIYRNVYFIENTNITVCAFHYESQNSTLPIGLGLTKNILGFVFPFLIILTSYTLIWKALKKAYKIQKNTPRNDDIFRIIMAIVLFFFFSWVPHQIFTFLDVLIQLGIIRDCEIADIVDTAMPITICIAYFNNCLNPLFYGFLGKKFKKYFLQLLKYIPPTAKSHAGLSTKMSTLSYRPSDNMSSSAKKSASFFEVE
# T1 sequence (P25095 whole entry): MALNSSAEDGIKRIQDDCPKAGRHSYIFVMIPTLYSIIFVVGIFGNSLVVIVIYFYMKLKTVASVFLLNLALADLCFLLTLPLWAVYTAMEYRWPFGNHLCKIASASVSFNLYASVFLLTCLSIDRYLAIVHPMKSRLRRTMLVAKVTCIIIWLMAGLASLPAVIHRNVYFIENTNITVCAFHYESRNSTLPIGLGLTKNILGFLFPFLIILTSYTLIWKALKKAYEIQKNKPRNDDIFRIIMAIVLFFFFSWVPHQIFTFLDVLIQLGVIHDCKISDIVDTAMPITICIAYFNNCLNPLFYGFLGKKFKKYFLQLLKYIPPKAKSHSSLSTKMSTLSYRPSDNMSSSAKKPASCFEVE
Compound,IC50 [2],IC50 [4],ED50 (Rattus norvegicus [1]),ED50 (Rattus norvegicus [3]),ID50 (Rattus norvegicus [1])
CCCc1nc(SC)c(C(=O)C[S+]([O-])c2ccccc2)n1Cc1ccc(-c2ccccc2S(=O)(=O)NC(=O)NCc2ccccc2)cc1 (configuration not stated),2.8 nM,0.08 nM,0.8 mg/kg,0.04 mg/kg,–
CCCc1nc(SC)c(C(=O)C[S+]([O-])c2ccccc2)n1Cc1ccc(-c2ccccc2S(=O)(=O)NC(=O)NCC2CCCCC2)cc1 (configuration not stated),4 nM,0.3 nM,3.1 mg/kg,–,–
CCCc1nc(SC)c(C(=O)C[S+]([O-])c2ccccc2)n1Cc1ccc(-c2ccccc2S(=O)(=O)NC(=O)NCc2cccs2)cc1 (configuration not stated),3.5 nM,0.02 nM,1.4 mg/kg,–,–
CCCCc1nc(SC)c(C(=O)CS(=O)(=O)c2ccccc2)n1Cc1ccc(-c2ccccc2S(=O)(=O)NC(=O)NCc2ccccc2)cc1,1.7 nM,0.04 nM,> 3 mg/kg,0.02 mg/kg,–
CCCCc1nc(SC)c(C(C)(O)C(=O)O)n1Cc1ccc(-c2ccccc2S(=O)(=O)NC(=O)NCCC)cc1 (configuration not stated),8.2 nM,–,–,–,–
CCCc1nc(SC)c(C(=O)C[S+]([O-])c2ccccc2)n1Cc1ccc(-c2ccccc2S(=O)(=O)NC(=O)NCC2CCCC2)cc1 (configuration not stated),7 nM,0.35 nM,> 3 mg/kg,–,–
CCCc1nc(SC)c(C(=O)CSc2ccccc2)n1Cc1ccc(-c2ccccc2S(=O)(=O)NC(=O)NCc2ccccc2)cc1,93 nM,0.2 nM,–,–,–
CCCCc1nc(SC)c(C(=O)CC(=O)c2ccccc2)n1Cc1ccc(-c2ccccc2S(=O)(=O)NC(=O)NCc2ccccc2)cc1,114 nM,0.2 nM,–,–,–
CCCc1nc(SC)c(C(=O)CS(=O)(=O)c2ccc(OC)cc2)n1Cc1ccc(-c2ccccc2S(=O)(=O)NC(=O)NCc2ccccc2)cc1,2.1 nM,0.1 nM,2 mg/kg,0.07 mg/kg,–
CCCCc1nc(SC)c(C(=O)CS(=O)(=O)c2ccc(F)cc2)n1Cc1ccc(-c2ccccc2S(=O)(=O)NC(=O)NCc2ccccc2)cc1,0.8 nM,0.06 nM,> 3 mg/kg,0.12 mg/kg,–
CCCc1nc(SC)c(C(=O)CS(=O)(=O)c2ccccc2)n1Cc1ccc(-c2ccccc2S(=O)(=O)NC(=O)NCc2ccccc2)cc1,2.7 nM,0.09 nM,> 3 mg/kg,0.04 mg/kg,–
CCCCc1nc(SC)c(C(=O)O)n1Cc1ccc(-c2ccccc2S(=O)(=O)NC(=O)NCCC)cc1,920 nM,–,–,–,–
CCc1nc(SC)c(C(=O)C[S+]([O-])c2ccccc2)n1Cc1ccc(-c2ccccc2S(=O)(=O)NC(=O)NCc2ccccc2)cc1 (configuration not stated),1.5 nM,0.07 nM,2 mg/kg,0.1 mg/kg,–
CCCCc1nc(SC)c(C(=O)C(CCC)S(=O)(=O)c2ccccc2)n1Cc1ccc(-c2ccccc2S(=O)(=O)NC(=O)NCc2ccccc2)cc1 (configuration not stated),180 nM,1.8 nM,–,–,–

# The next lines start with results.
IC50 [2],IC50 [4],Compound,ED50 (Rattus norvegicus [1]),ED50 (Rattus norvegicus [3]),ID50 (Rattus norvegicus [1])
17 nM,–,CCCCc1nc(SC)c(C(=O)O)n1Cc1ccc(-c2ccccc2S(=O)(=O)NC(=O)NCc2ccccc2)cc1,–,–,–
110 nM,0.3 nM,CCCc1nc(SC)c(C(=O)CC#N)n1Cc1ccc(-c2ccccc2S(=O)(=O)NC(=O)NCc2ccccc2)cc1,–,–,–
30 nM,0.08 nM,CCCc1nc(SC)c(C(C)=O)n1Cc1ccc(-c2ccccc2S(=O)(=O)NC(=O)NCc2ccccc2)cc1,–,–,–
1 nM,0.09 nM,CCCCc1nc(SC)c(C(=O)CC(=O)OCC)n1Cc1ccc(-c2ccccc2S(=O)(=O)NC(=O)NCc2ccccc2)cc1,–,–,–
3 nM,0.04 nM,CCCCc1nc(SC)c(C(=O)C[S+]([O-])c2ccccc2)n1Cc1ccc(-c2ccccc2S(=O)(=O)NC(=O)NCc2ccccc2)cc1 (configuration not stated),1.6 mg/kg,0.12 mg/kg,–
5.8 nM,0.08 nM,CCCCc1nc(SC)c(C(=O)CS(C)(=O)=O)n1Cc1ccc(-c2ccccc2S(=O)(=O)NC(=O)NCc2ccccc2)cc1,1.7 mg/kg,0.04 mg/kg,–
15 nM,0.3 nM,CCCCc1nc(SC)c(C(=O)C[S+](C)[O-])n1Cc1ccc(-c2ccccc2S(=O)(=O)NC(=O)NCc2ccccc2)cc1 (configuration not stated),0.7 mg/kg,0.06 mg/kg,–
1.4 nM,0.07 nM,"CCCc1nc(SC)c(C(=O)C[S+]([O-])c2ccc(C)cc2)n1Cc1ccc(-c2ccccc2S(=O)(=O)NC(=O)NCc2ccccc2)cc1 (single isomer, unassigned; 7g)",1.5 mg/kg,0.03 mg/kg,–
4.2 nM,0.03 nM,"CCCc1nc(SC)c(C(=O)C[S+]([O-])c2ccc(C)cc2)n1Cc1ccc(-c2ccccc2S(=O)(=O)NC(=O)NCc2ccccc2)cc1 (single isomer, unassigned; 7h)",–,–,1.5 mg/kg
